Molecules are shown by their SMILES.

This assay addresses T1, human TLR7 (Homo sapiens, UniProt Q9NYK1).
T1 construct: expressed in transfected cells; host or cells: HEK293 cell line stably expressing the pNiFty2-SEAP reporter plasmid; TLR7 in pUNO vector, blasticidin selection
T1 sequence (Q9NYK1 27-1049): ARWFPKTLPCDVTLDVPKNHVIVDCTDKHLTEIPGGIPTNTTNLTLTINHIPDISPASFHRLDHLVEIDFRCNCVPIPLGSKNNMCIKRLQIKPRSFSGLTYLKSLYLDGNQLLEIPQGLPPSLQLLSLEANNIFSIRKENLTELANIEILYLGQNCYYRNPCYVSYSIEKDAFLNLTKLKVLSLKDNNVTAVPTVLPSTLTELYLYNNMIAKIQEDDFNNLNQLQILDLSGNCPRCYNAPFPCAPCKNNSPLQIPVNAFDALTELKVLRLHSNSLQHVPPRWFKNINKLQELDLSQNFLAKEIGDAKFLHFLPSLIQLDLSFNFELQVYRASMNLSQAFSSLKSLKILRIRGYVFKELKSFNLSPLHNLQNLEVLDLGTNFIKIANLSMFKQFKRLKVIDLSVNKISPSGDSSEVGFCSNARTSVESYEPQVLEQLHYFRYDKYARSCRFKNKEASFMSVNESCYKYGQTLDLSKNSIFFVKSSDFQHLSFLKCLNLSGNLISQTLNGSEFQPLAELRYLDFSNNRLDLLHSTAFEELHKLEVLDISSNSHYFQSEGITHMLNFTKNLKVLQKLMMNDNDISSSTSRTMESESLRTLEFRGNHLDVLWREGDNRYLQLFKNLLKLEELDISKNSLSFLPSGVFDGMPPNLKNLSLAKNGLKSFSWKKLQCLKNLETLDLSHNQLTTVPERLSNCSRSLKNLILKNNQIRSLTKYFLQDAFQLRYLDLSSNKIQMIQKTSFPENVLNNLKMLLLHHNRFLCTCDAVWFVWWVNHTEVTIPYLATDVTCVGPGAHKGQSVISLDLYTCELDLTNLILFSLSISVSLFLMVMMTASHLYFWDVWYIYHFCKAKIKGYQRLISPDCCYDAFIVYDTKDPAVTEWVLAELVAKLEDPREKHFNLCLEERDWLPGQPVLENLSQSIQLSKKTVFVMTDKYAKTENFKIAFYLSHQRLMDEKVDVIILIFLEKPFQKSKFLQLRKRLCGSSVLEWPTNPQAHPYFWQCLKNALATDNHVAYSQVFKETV
Kind of assay: Human TLR7 assay (SEAP reporter in HEK293 cells). Type of assay: cell-based. To be noted: SEAP induction in HEK293 cells expressing human TLR7, overnight incubation at 37° C., 0.1% DMSO.
Text: The most common variant sequence of human TLR7 (represented by the EMBL sequence AF240467) was cloned into the mammalian cell expression vector pUNO and transfected into a HEK293 cell line already stably expressing the pNiFty2-SEAP reporter plasmid; integration of the reporter gene was maintained by selection with the antibiotic zeocin. Transfectants with stable TLR7 expression were selected using the antibiotic blasticidin. In this reporter cell-line, expression of secreted alkaline phosphatase (SEAP) is controlled by an NFkB/ELAM-1 composite promoter comprising five NFkB sites combined with the proximal ELAM-1 promoter. TLR signaling leads to the translocation of NFkB and activation of the promoter results in expression of the SEAP gene. TLR7-specific activation was assessed by determining the level of SEAP produced following overnight incubation of the cells at 37° C. with the standard compound in the presence of 0.1% (v/v) dimethylsulfoxide (DMSO). Concentration dependent induction of SEAP production by compounds was expressed as the concentration of compound which produced half of the maximal level of SEAP induction for that compound (pEC50).
By EC50 is commonly meant the concentration giving half of the maximal effect. Read a high EC50 as a need for much substance. In the case of `CCCCc1nc2c(N)nc3ccccc3c2n1CCCN(CCCN(C)C)Cc1cccc(CC(=O)OC)c1` [Example 11, Methyl 2-(3-(((3-(4-amino-2-butyl-1H-imidazo[4,5-c]quinolin-1-yl)propyl)(3-(dimethylamino)propyl)amino)methyl)phenyl)acetate], the EC50 is 251 nM.

On to `CCCCc1nc2c(N)nc3ccccc3c2n1CCCN(Cc1ccc(CC(=O)OC)cc1)C(=O)CN1CCN(C(=O)OCC)CC1` [Example 22, Ethyl 4-(2-((3-(4-amino-2-butyl-1H-imidazo[4,5-c]quinolin-1-yl)propyl)(4-(2-methoxy-2-oxoethyl)benzyl)amino)-2-oxoethyl)piperazine-1-carboxylate], for which it took 631 nM to reach a half-maximal effect (EC50).

The compound `CCCCc1nc2c(N)nc3ccccc3c2n1CCCN(Cc1cccc(CC(=O)OC)c1)C(=O)CN1CCCN(C)CC1` [Example 62, Methyl 2-(3-((N-(3-(4-amino-2-butyl-1H-imidazo[4,5-c]quinolin-1-yl)propyl)-2-(4-methyl-1,4-diazepan-1-yl)acetamido)methyl)phenyl)acetate] had an EC50 of 251 nM.

With `CCCCc1nc2c(N)nc3ccccc3c2n1CCCN(Cc1cccc(CC(=O)OC)c1)C(=O)CN1CCN(S(C)(=O)=O)CC1` [Example 59, Methyl 2-(3-((N-(3-(4-amino-2-butyl-1H-imidazo[4,5-c]quinolin-1-yl)propyl)-2-(4-(methylsulfonyl)piperazin-1-yl)acetamido)methyl)phenyl)acetate], the EC50 was 794 nM.

`CCCCc1nc2c(N)nc3ccccc3c2n1CCCN(Cc1cccc(CC(=O)OC)c1)C(=O)CN(CCO)CCO` [Example 42, Methyl 2-(3-((N-(3-(4-amino-2-butyl-1H-imidazo[4,5-c]quinolin-1-yl)propyl)-2-(bis(2-hydroxyethyl)amino)acetamido)methyl)phenyl)acetate]: a half-maximal effect (EC50) was put at 1580 nM.

With `CCCCc1nc2c(N)nc3ccccc3c2n1CCCN(Cc1cccc(CC(=O)OC)c1)C(=O)CN(C)CCOC` [Example 39, Methyl 2-(3-((N-(3-(4-amino-2-butyl-1H-imidazo[4,5-c]quinolin-1-yl)propyl)-2-((2-methoxyethyl)(methyl)amino)acetamido)methyl)phenyl)acetate], the midpoint of the response, the EC50, lay at 158 nM.

Consider `CCCCc1nc2c(N)nc3ccccc3c2n1CCCN(Cc1cccc(CC(=O)OC)c1)C(=O)CN(C)CCCC` [Example 40, Methyl 2-(3-((N-(3-(4-amino-2-butyl-1H-imidazo[4,5-c]quinolin-1-yl)propyl)-2-(butyl(methyl)amino)acetamido)methyl)phenyl)acetate], for which the EC50 was 126 nM.

Take `CCCCc1nc2c(N)nc3ccccc3c2n1CCCN(Cc1cccc(CC(=O)OC)c1)C(=O)CN1CCN(CCOC)CC1` [Example 57, Methyl 2-(3-((N-(3-(4-amino-2-butyl-1H-imidazo[4,5-c]quinolin-1-yl)propyl)-2-(4-(2-methoxyethyl)piperazin-1-yl)acetamido)methyl)phenyl)acetate]: the EC50 was 50.1 nM. Against the preceding compound, the EC50 is about 2.5-fold lower.

Regarding `CCCCc1nc2c(N)nc3ccccc3c2n1CCCN(Cc1cccc(CC(=O)OC)c1)C(=O)CN1CCN(C(C)=O)CC1` [Example 58, Methyl 2-(3-((2-(4-acetylpiperazin-1-yl)-N-(3-(4-amino-2-butyl-1H-imidazo[4,5-c]quinolin-1-yl)propyl)acetamido)methyl)phenyl)acetate], the EC50 was 1260 nM.

On to `COCCc1nc2c(N)nc3ccccc3c2n1CCCN(Cc1ccc(CC(=O)OC)cc1)C(=O)CN(C)CCOC` [Example 32, Methyl 2-(4-((N-(3-(4-amino-2-(2-methoxyethyl)-1H-imidazo[4,5-c]quinolin-1-yl)propyl)-2-((2-methoxyethyl)(methyl)amino)acetamido)methyl)phenyl)acetate], for which the response was half-maximal at 158 nM (EC50).

Take `COCCc1nc2c(N)nc3ccccc3c2n1CCCN(Cc1cccc(CC(=O)OC)c1)C(=O)CN1CCN(C)CC1` [Example 72, Methyl 2-(3-((N-(3-(4-amino-2-(2-methoxyethyl)-1H-imidazo[4,5-c]quinolin-1-yl)propyl)-2-(4-methylpiperazin-1-yl)acetamido)methyl)phenyl)acetate]: the concentration giving a half-maximal response (EC50) was 501 nM.

The compound `CCCCc1nc2c(N)nc3ccccc3c2n1CCCN(Cc1ccc(CC(=O)OC)cc1)C(=O)CN1CCN(S(=O)(=O)CC)CC1` [Example 23, Methyl 2-(4-((N-(3-(4-amino-2-butyl-1H-imidazo[4,5-c]quinolin-1-yl)propyl)-2-(4-(ethylsulfonyl)piperazin-1-yl)acetamido)methyl)phenyl)acetate] showed an EC50 of 251 nM. Against the preceding compound, the EC50 is about 2-fold lower.

Compound `CCCCc1nc2c(N)nc3ccccc3c2n1CCCN(Cc1ccc(CC(=O)OC)cc1)C(=O)CN1CCCN(S(C)(=O)=O)CC1` [Example 68, Methyl 2-(4-((N-(3-(4-amino-2-butyl-1H-imidazo[4,5-c]quinolin-1-yl)propyl)-2-(4-(methylsulfonyl)-1,4-diazepan-1-yl)acetamido)methyl)phenyl)acetate] had an EC50 of 501 nM.

Regarding `CCCCc1nc2c(N)nc3ccccc3c2n1CCCN(Cc1ccc(CC(=O)OC)cc1)C(=O)CN1CCN(C)CC1` [Example 10, Methyl 2-(4-((N-(3-(4-amino-2-butyl-1H-imidazo[4,5-c]quinolin-1-yl)propyl)-2-(4-methylpiperazin-1-yl)acetamido)methyl)phenyl)acetate], the EC50 was 501 nM. This counts as sub-micromolar.

Compound `CCCCc1nc2c(N)nc3ccccc3c2n1CCCN(CCCN1CCN(C)CC1)Cc1cccc(CC(=O)OC)c1` [Example 14, Methyl 2-(3-(((3-(4-amino-2-butyl-1H-imidazo[4,5-c]quinolin-1-yl)propyl)(3-(4-methylpiperazin-1-yl)propyl)amino)methyl)phenyl)acetate] gave an EC50 of 251 nM.

The compound `COCCc1nc2c(N)nc3ccccc3c2n1CCCN(Cc1ccc(CC(=O)OC)cc1)C(=O)CN1CCCCC1` [Example 29, Methyl 2-(4-((N-(3-(4-amino-2-(2-methoxyethyl)-1H-imidazo[4,5-c]quinolin-1-yl)propyl)-2-(piperidin-1-yl)acetamido)methyl)phenyl)acetate] had an EC50 of 100 nM.

Compound `CCCCc1nc2c(N)nc3ccccc3c2n1CCCN(Cc1cccc(CC(=O)OC)c1)C(=O)CN1C[C@@H](C)O[C@@H](C)C1` [Example 54, Methyl 2-(3-((N-(3-(4-amino-2-butyl-1H-imidazo[4,5-c]quinolin-1-yl)propyl)-2-((2S,6R)-2,6-dimethylmorpholino)acetamido)methyl)phenyl)acetate] had an EC50 of 1000 nM.

`CCCCc1nc2c(N)nc3ccccc3c2n1CCCN(Cc1cccc(CC(=O)OC)c1)C(=O)CN1CCOCC1` [Example 53, Methyl 2-(3-((N-(3-(4-amino-2-butyl-1H-imidazo[4,5-c]quinolin-1-yl)propyl)-2-morpholinoacetamido)methyl)phenyl)acetate] showed an EC50 of 794 nM.

The compound `CCCCc1nc2c(N)nc3ccccc3c2n1CCCN(Cc1cccc(CC(=O)OC)c1)C(=O)CN1CCCCC1` [Example 49, Methyl 2-(3-((N-(3-(4-amino-2-butyl-1H-imidazo[4,5-c]quinolin-1-yl)propyl)-2-(piperidin-1-yl)acetamido)methyl)phenyl)acetate] had an EC50 of 79.4 nM.

Turning to `COCCc1nc2c(N)nc3ccccc3c2n1CCCN(Cc1ccc(CC(=O)OC)cc1)C(=O)CN1CCN(CCOC)CC1` [Example 71, Methyl 2-(4-((N-(3-(4-amino-2-(2-methoxyethyl)-1H-imidazo[4,5-c]quinolin-1-yl)propyl)-2-(4-(2-methoxyethyl)piperazin-1-yl)acetamido)methyl)phenyl)acetate], a half-maximal response (EC50) required 200 nM.

In the case of `CCCCc1nc2c(N)nc3ccccc3c2n1CCCN(Cc1cccc(CC(=O)OC)c1)C(=O)CN1CCCN(S(C)(=O)=O)CC1` [Example 65, Methyl 2-(3-((N-(3-(4-amino-2-butyl-1H-imidazo[4,5-c]quinolin-1-yl)propyl)-2-(4-(methylsulfonyl)-1,4-diazepan-1-yl)acetamido)methyl)phenyl)acetate], the response was half-maximal at 631 nM (EC50).

Compound `CCCCc1nc2c(N)nc3ccccc3c2n1CCCN(Cc1cccc(CC(=O)OC)c1)C(=O)CN1CCN(CCO)CC1` [Example 56, Methyl 2-(3-((N-(3-(4-amino-2-butyl-1H-imidazo[4,5-c]quinolin-1-yl)propyl)-2-(4-(2-hydroxyethyl)piperazin-1-yl)acetamido)methyl)phenyl)acetate] showed an EC50 of 501 nM.

These data come from patent US8436178B2, “Imidazoquinolines with immuno-modulating properties” (AstraZeneca AB, priority 2007, dated 2013).
